Reference: patent US20100178249A1, “IMAGING MEDIUM COMPRISING LACTATE AND HYPERPOLARISED 13C-PYRUVATE” (priority 2006, published 2010)

Tests used:
Format in all cases: cell-based
[1] = tested on: EL4 murine lymphoma cells; assay: Cell death by acridine orange and propidium iodide staining / fluorescence microscopy; conditions: for morphological features of dying cells: cells treated with both the PARP inhibitor and etoposide, fluorescence microscopy
Procedure: (§1) EL4 murine lymphoma cells (10^8 cells) were treated with 15 μM etoposide (PCH Pharmachemie BV, Harleem), a compound which is known to induce cell death after 16 h exposure. A separate set of cells was treated for 16 hours with 15 μM etoposide plus 20 mM nicotinamide, a known PARP inhibitor. Cell death (apoptosis and necrosis) was confirmed by acridine orange and propidium iodide staining. The cells were washed 3 times with RPMI 1640 growth medium containing 10% FCS at 37° C. and to 2 ml of the etoposide- and etoposide/nicotinamide treated EL4 cell suspension 2 ml of the imaging medium according to Example 2 were added. The final cell suspension thus contained 30 mM hyperpolarised ^13C1-pyruvate and 37.5 mM lactate.

[2] = tested on: EL-4 murine lymphoma cells; assay: 31P-NMR measurements on acid-extracts of EL-4 cells induced to undergo cell death
Excerpt: Loss of NAD(H) can be explained by DNA-damage induced activation of the enzyme poly-ADP-ribose polymerase (PARP), which polyadenylates various proteins and uses NAD^+ as a substrate. There was also an increase in the resonances from the glycolytic intermediate, fructose-1,6-bisphosphate (FBP), which can be explained by inhibition of the glycolytic enzyme, glyceraldehyde 3-phosphate dehydrogenase (GAPDH), through loss of its coenzyme NAD(H). Inhibition of PARP activity with a competitive inhibitor (20 mM nicotinamide) or 3-aminobenzamide (10 mM) inhibited the loss of NAD(H) and the increase in FBP concentration observed in apoptotic cells.

[3] = tested on: EL4 murine lymphoma cells; assay: 13C-MR spectroscopy of hyperpolarised 13C-label flux between pyruvate and lactate in EL4 cells; conditions: cells treated with both the PARP inhibitor and etoposide
Procedure: as §1
^13C-signal intensities from ^13C-pyruvate and ^13C-lactate in etoposide-treated EL4 cell suspensions as described in 3.1 were followed over a time period of 240 seconds from the time of addition of the imaging medium. […]
^13C-signal intensities from ^13C-pyruvate and ^13C-lactate in etoposide-treated and etoposide/nicotinamide treated EL4 cell suspensions as described in 3.1 were followed over a time period of 240 seconds from the time of addition of the imaging medium. […] The data were fit to a two-site exchange model based on the modified Bloch equations, and the rate constants for the forward and reverse exchange ^13C-fluxes were determined. […]

[4] = etoposide-treated cells compared to untreated control cells

NC(=O)c1cccnc1 [nicotinamide]
morphological features of dying cells [1]: still exhibiting the common morphological features of dying cells | increase in FBP concentration observed in apoptotic cells ([2]; 20 mM nicotinamide): inhibited | loss of NAD(H) observed in apoptotic cells ([2]; 20 mM nicotinamide): inhibited | ability to transfer the hyperpolarised 13C-label between the pyruvate and lactate pools [3]: maintained

NC(=O)c1cccc(N)c1 [3-aminobenzamide]
morphological features of dying cells [1]: still exhibiting the common morphological features of dying cells | increase in FBP concentration observed in apoptotic cells ([2]; 3-aminobenzamide 10 mM): inhibited | loss of NAD(H) observed in apoptotic cells ([2]; 3-aminobenzamide 10 mM): inhibited | ability to transfer the hyperpolarised 13C-label between the pyruvate and lactate pools [3]: maintained

COc1cc([C@@H]2c3cc4c(cc3[C@@H](O[C@@H]3O[C@@H]5CO[C@@H](C)O[C@H]5[C@H](O)[C@H]3O)[C@H]3COC(=O)[C@H]23)OCO4)cc(OC)c1O [etoposide]
cell death (apoptosis and necrosis) ([1]; 15 μM etoposide, 16 h exposure): confirmed | intensity of the resonances from NAD(H) [2, 4]: decrease | resonances from fructose-1,6-bisphosphate (FBP) [2, 4]: increase
